Measured values reported in US20240391870A1 (Arcturus Therapeutics, Inc., priority 2023, published 2024).

Experiments:
[1] = tested on: factor VII; assay: Factor VII knock down evaluation (LNP with FVII siRNA); type: in vivo, Balb/C mice; settings: plasma FVII after 48 h vs saline control; for FVII KD % 0.01 mpk: 0.01 mpk i.v.; for FVII KD % 0.03 mpk: 0.03 mpk i.v.
Description: Lipid formulations comprising a FVII siRNA further described below were evaluated for their knockdown activity using the protocol of this example. In the FVII evaluation, seven to eight week-old, female Balb/C mice were purchased from Charles River Laboratories (Hollister, CA). The mice were held in a pathogen-free environment and all procedures involving the mice were performed in accordance with guidelines established by the Institutional Animal Care and Use Committee (IACUC). Lipid nanoparticles containing factor VII siRNA were administered intravenously at a dosing volume of 10 mL/kg and two dose levels (0.03 and 0.01 mg/kg). After 48 h, the mice were anesthetized with isoflurane and blood was collected retro-orbitally into Microtainer® tubes coated with 0.109 M sodium citrate buffer (BD Biosciences, San Diego, CA) and processed to plasma. Plasma specimens were tested for factor VII levels immediately or stored at −80° C. for later analysis. Measurement of FVII protein in plasma was determined using the colorimetric Biophen VII assay kit (Aniara Diagnostica, USA). Absorbance was measured at 405 nm and a calibration curve was generated using the serially diluted control plasma to determine levels of factor VII in plasma from treated animals, relative to the saline-treated control animals.

[2] = tested on: hEPO; assay: hEPO mRNA expression evaluation (hEPO-LNPs); type: in vivo, Balb/c mice; settings: serum hEPO after 6 hr; for EPO exprssn (ng/mL) 0.03 mpk: 0.03 mpk i.v.; for EPO exprssn (ng/mL) 0.1 mpk: 0.1 mpk i.v.
Description: Protocol for hEPO mRNA Expression Evaluation
Lipid formulations comprising a hEPO mRNA below were evaluated for their ability to express hEPO in vivo according to the protocol of this example. All animal experiments were conducted using institutionally-approved protocols (IACUC). In this protocol, female Balb/c mice at least 6-8 weeks of age were purchased from Charles River Laboratory. […] After 6 hr, blood was collected with serum separation tubes, and the serum was isolated by centrifugation. Serum hEPO levels were then measured using an ELISA assay (Human Erythropoietin Quantikine IVD ELISA Kit, R&D Systems, Minneapolis, MD).

[3] = Mouse plasma stability; type: in vitro ADME, CD-1 mouse; settings: 1 uM lipid
Description: Lipid stock solution was prepared by dissolution of the lipid in isopropanol at the concentration of 5 mg/mL. A requisite volume of the lipid-isopropanol solution was then diluted to 100 μM concentration at a total volume of 1.0 mL with in 50:50 (v/v) ethanol/water. Ten microliters of this 100 μM solution was spiked into 1.0 mL of mouse plasma (BioIVT, Cat. No.: MSE00PLNHUNN, CD-1 mouse, anticoagulant: sodium heparin, not filtered) that was pre-warmed to 37° C. and was stirred at 50 rpm with a magnetic stir bar. The starting concentration of lipids in plasma was thus 1 μM. At time points 0, 15, 30, 45, 60 and 120 min, 0.1 mL of the plasma was withdrawn from the reaction mixture and the protein was precipitated by adding 0.9 mL of ice-cold 4:1 (v/v) acetonitrile/methanol with 1 μg/mL of a selected internal standard lipid added. After filtration through a 0.45 micron 96-well filtering plate, the filtrates were analyzed by LC-MS (Thermo Fisher's Vanquish UHPLC—LTQ XL linear ion trap Mass Spectrometer); Waters XBridge BEH Shield RP18 2.5 micron (2.1×100 mm) column with its matching guard column. Mobile phase A was 0.1% formic acid in water, and mobile phase B was 0.1% formic acid in 1:1 (v/v) acetonitrile/methanol. Flow rate was 0.5 ml/min. Elution gradient was: Time 0-1 min: 10% B; 1-6 min: 10%-95% B; 6-8.5 min: 95% B; 8.5-9 min: 95%-10% B; 9-10 min: 10% B. Mass spectrometry was in positive scanning mode from 600-1100 m/z. The peak of the molecular ion of the lipids was integrated in the extracted ion chromatography (XIC) using Xcalibur software (Thermo Fisher). The relative peak area compared to T=0, after normalization by the peak area of the internal standard, was used as the percentage of the lipid remaining at each time point. T1/2 values were calculated using the first-order decay model.

[4] = Measured pKa in the indicated formulation; settings: for pKa: EPO / pKa: FVII: Table 2; for pKa: EPO: measured in EPO formulation; for pKa: FVII: measured in FVII formulation
Description: Measured pKa values were determined based on the pH measured in the indicated formulation (i.e., EPO or FVII formulation).

[5] = In vivo biodegradability assay (lipid in liver); settings: mouse liver, 48 h
Description: In vivo biodegradability assay was performed to assess the biodegradability of lipids in the LNP. Briefly, mice were injected with either 0.1 or 0.03 mg/Kg dose and after 24 or 48 hours mice livers were collected. To measure the concentration of lipids in the mouse liver, liver samples were homogenized in appropriate buffer in 1-10 dilution and mixed with the same amount of stabilized plasma. The samples were then mixed with organic solvents spiked with internal standard to precipitate proteins. After centrifugation, supernatant was diluted further with organic solvent before sample analysis by LC-MS. In LC-MS analysis, positive electrospray ionization was used, and multiple reaction monitoring (MRM) parameters were set up to specifically target the lipid analyte and internal standard. Calibration standards were prepared in stabilized plasma and mixed with same amount of homogenization buffer before protein precipitation. Quality control samples with known amounts of lipid was prepared in blank liver homogenate to monitor the precision and accuracy of the assay.

Row | Structure (SMILES) | FVII KD % 0.01 mpk ([1]; Table 1) | FVII KD % 0.03 mpk ([1]; Table 1) | FVII KD % 0.01 mpk ([1]; Table 2) | FVII KD % 0.03 mpk ([1]; Table 2) | EPO exprssn (ng/mL) 0.03 mpk ([2]; Table 1) | EPO exprssn (ng/mL) 0.1 mpk ([2]; Table 1) | EPO exprssn (ng/mL) 0.03 mpk ([2]; Table 2) | EPO exprssn (ng/mL) 0.1 mpk ([2]; Table 2) | Percent remaining in mouse plasma after 2 h ([3]; Table 1, mouse plasma 37 C) | Percent remaining in mouse plasma after 2 h ([3]; Table 2, mouse plasma 37 C) | pKa ([4]; EPO formulation) | pKa ([4]; FVII formulation) | pKa: EPO [4] | pKa: FVII [4] | In vivo degradability (ng/tissue) at 48h 0.03 mpk ([5]; Table 1) | In vivo degradability (ng/tissue) at 48h 0.1 mpk ([5]; Table 1) | In vivo degradability (ng/tissue) at 48h 0.03 mpk ([5]; Table 2) | In vivo degradability (ng/tissue) at 48h 0.1 mpk ([5]; Table 2)
1 | CCCCCCCCC(=O)OCC(COC(=O)CCCCCCCC)OC(=O)CCCN(CCCC(=O)OC(COC(=O)CCCCCCCC)COC(=O)CCCCCCCC)C(=O)SCCCN(C)C [LIPID 1, ((4,4′-((((3-(Dimethylamino)propyl)thio)carbonyl)azanediyl)bis(butanoyl))bis(oxy))bis(propane-2,1,3-triyl)tetranonanoate] | 84% | 100% | 84% | 100% | 432 ng/mL | 1413 ng/mL | 432 ng/mL | 1413 ng/mL | 14% | 14% | 6.4 | 6.64 | 6.4 | 6.64 | BLOQ | BLOQ | BLOQ | BLOQ
2 | CCCCCCCCC(=O)OCC(COC(=O)CCCCCCCC)OC(=O)CCCC(CCCC(=O)OC(COC(=O)CCCCCCCC)COC(=O)CCCCCCCC)OC(=O)CCCN(C)C.Cl [LIPID 3, bis(1,3-bis(Nonanoyloxy)propan-2-yl) 5-((4-(dimethylamino)butanoyl)oxy)nonanedioate HCl Salt] | 51% | 87% | 51% | 87% | 191 ng/mL | 471 ng/mL | 191 ng/mL | 471 ng/mL | 15% | 15% | 6.41 | 6.49 | 6.41 | 6.49 | BLOQ | BLOQ | BLOQ | BLOQ
3 | CCCCCCCC(=O)OCC(COC(=O)CCCCCCC)OC(=O)CCCC(CCCC(=O)OC(COC(=O)CCCCCCC)COC(=O)CCCCCCC)SC(=O)CCCN(C)C [LIPID 4, bis(1,3-bis(Octanoyloxy)propan-2-yl) 5-((4-(dimethylamino)butanoyl)thio)nonanedioate] | 71% | 33% | 71% | 33% | 392 ng/mL | 1108 ng/mL | 392 ng/mL | 1108 ng/mL | 13% | 13% | 6.22 |  | (6.22/ND) |  | BLOQ | BLOQ | BLOQ | BLOQ
4 | CCCCCCCCC(=O)OCC(COC(=O)CCCCCCCC)OC(=O)CCC(CCC(=O)OC(COC(=O)CCCCCCCC)COC(=O)CCCCCCCC)OC(=O)CCCN(C)C [LIPID 5, bis(1,3-bis(Nonanoyloxy)propan-2-yl) 4-((4-(dimethylamino)butanoyl)oxy)heptanedioate] | 90% | 62% | 90% | 62% | 87 ng/mL | 533 ng/mL | 87 ng/mL | 533 ng/mL | 40% | 40% | 6.37 | 6.54 | 6.37 | 6.54 | BLOQ | BLOQ | BLOQ | BLOQ
5 | CCCCCCCCC(=O)OCC(COC(=O)CCCCCCCC)OC(=O)CN(CC(=O)OC(COC(=O)CCCCCCCC)COC(=O)CCCCCCCC)C(=O)SCCCN(C)C [LIPID 8, ((2,2′-((((3-(Dimethylamino)propyl)thio)carbonyl)azanediyl)bis(acetyl))bis(oxy))bis(propane-2,1,3-triyl)tetranonanoate] |  |  |  |  | 169 ng/mL | 701 ng/mL | 169 ng/mL | 701 ng/mL | 81% | 81% | 6.5 |  | (6.50/ND) |  | BLOQ | BLOQ | BLOQ | BLOQ
6 | CCCCCC(C)(C)C(=O)OCC(COC(=O)C(C)(C)CCCCC)OC(=O)CCCN(CCCC(=O)OC(COC(=O)C(C)(C)CCCCC)COC(=O)C(C)(C)CCCCC)C(=O)SCCCN(C)C [LIPID 19, ((4,4′-((((3-(Dimethylamino)propyl)thio)carbonyl)-azanediyl)bis(butanoyl))bis(oxy))bis(propane-2,1,3-triyl)tetrakis(2,2-dimethylheptanoate)] |  |  |  |  |  |  |  | 958 ng/mL |  | 100% | 6.27 |  | (6.27/ND) |  | <340 ng/tissue | 847 ng/tissue | <340 ng/tissue | 847 ng/tissue
